Test results published in patent publication US11311568B2, “Therapeutic pharmaceutical composition for cancer including miRNA” (Purmx Therapeutics, Inc., priority 2017, dated 2022).

Key:
Assay in all cases: Screening in cancer cell strains, cell survival rate with PrestoBlue
Format in all cases: cell-based
[1] = test system: pancreatic cancer cell strain BxPC-3; settings: BxPC-3, Day 5 after transfection with RNAiMAX, compared with miR-34a-5p
Description: (§1) The 349 types of aging induction miRNA (mirVana; Ambion) obtained from screening were transfected into various cancer cell strains (large intestine cancer cell strain HCT116 (p53 wildtype and p53 deletion), pancreatic cancer cell strains BxPC-3 and CFPAC-1, and tongue cancer cell strain HSC-4) with an auto dispenser Bravo (Agilent).
(§2) Transfection was carried out with the following protocol.
(§3) 1: To 70 μL of serum free medium (SFM) was added 0.35 μL of RNAiMAX (Invitrogen).
(§4) 2: The solution from 1 was added to a 96-well plate (μ-plate; ibidi) with Bravo.
(§5) 3: To 2 was added 0.7 μL of miRNA (Stock Conc. 200 nM) with Bravo, and this was mixed by pipetting.
(§6) 4: This was incubated at room temperature for 20 minutes.
(§7) 5: A cell suspension diluted to 3.5×10^4 cells/mL was dispensed at 70 μL each with Bravo.
(§8) 6: This was incubated at 37° C. under 5% CO2 condition.
(§9) Setting the day of transfection as Day 0, on Day 5 the cell survival rate was evaluated with PrestoBlue (Invitrogen). The operating protocol is shown below.
(§10) 1. The medium was exchanged to a medium comprising PrestoBlue diluted 20-folds, and this was incubated at 37° C. for 1 hour. 2. The fluorescence value (Ex/Em=560 nm/590 nm) was measured with Enspire (Perkin Elmer).
(§11) 3. The cell survival rate was determined by setting the fluorescence value obtained from the well with only the reagent as the background.

[2] = test system: tongue cancer cell strain HSC-4; settings: HSC-4, Day 5 after transfection with RNAiMAX, compared with miR-34a-5p
Description: as §1, §2, §3, §4, §5, §6, §7, §8, §9, §10, §11

[3] = test system: pancreatic cancer cell strain CFPAC-1; settings: CFPAC-1, Day 5 after transfection with RNAiMAX, compared with miR-34a-5p
Description: as §1, §2, §3, §4, §5, §6, §7, §8, §9, §10, §11

[4] = test system: large intestine cancer cell strain HCT116 (p53 deletion); settings: Day 5 after transfection with RNAiMAX, compared with miR-34a-5p
Description: as §1, §2, §3, §4, §5, §6, §7, §8, §9, §10, §11

[5] = test system: large intestine cancer cell strain HCT116 (p53 wildtype); settings: Day 5 after transfection with RNAiMAX, compared with miR-34a-5p
Description: as §1, §2, §3, §4, §5, §6, §7, §8, §9, §10, §11

| Substance | suppression of cell proliferation (cell survival rate, PrestoBlue) [1] | suppression of cell proliferation (cell survival rate, PrestoBlue) [2] | suppression of cell proliferation (cell survival rate, PrestoBlue) [3] | suppression of cell proliferation (cell survival rate, PrestoBlue) [4] | suppression of cell proliferation (cell survival rate, PrestoBlue) [5] |
| --- | --- | --- | --- | --- | --- |
| miR-631-5p: Mature-miRNA, AGACCUGGCCCAGACCUCAGC (SEQ ID NO. 8) (listed as RNA, chemistry not given here; listed as Homo sapiens) | suppress cell proliferation more significantly than miR-34-5p | suppress cell proliferation more significantly than miR-34-5p | suppress cell proliferation more significantly than miR-34-5p | suppress cell proliferation more significantly than miR-34-5p | suppress cell proliferation more significantly than miR-34-5p |
| miR-657-3p: Mature-miRNA, GGCAGGUUCUCACCCUCUCUAGG (SEQ ID NO. 11) (listed as RNA, chemistry not given here; listed as Homo sapiens) | suppress cell proliferation more significantly than miR-34-5p | suppress cell proliferation more significantly than miR-34-5p | suppress cell proliferation more significantly than miR-34-5p | suppress cell proliferation more significantly than miR-34-5p | suppress cell proliferation more significantly than miR-34-5p |
| miR-137-3p: Mature-miRNA, UUAUUGCUUAAGAAUACGCGUAG (SEQ ID NO. 5) (listed as RNA, chemistry not given here; listed as Homo sapiens) | suppress cell proliferation more significantly than miR-34-5p | suppress cell proliferation more significantly than miR-34-5p | suppress cell proliferation more significantly than miR-34-5p | suppress cell proliferation more significantly than miR-34-5p | suppress cell proliferation more significantly than miR-34-5p |
